Results on 23 substances are retold here after patent publication US20180291070A1, “PEPTIDES, AND USES THEREOF” (priority 2015, published 2018).

The test system of assay [1] is TNF-α. The assay can be described thus: TNF-α secretion by LPS-stimulated THP-1 differentiated macrophages (Biolegend ELISA). The class given is cell-based, human. Particulars: for TNF-α DECREASE: THP-1 cells, 100, 10 or 1 ng/ml synthetic peptide 24 h, then 10 ng/ml LPS 5 h, vs untreated control. As for the experimental part:
TNF-α is secreted by macrophages in response to stimulation by endotoxins such as lipopolysaccharides (LPS). TNF-α is thought to be involved in systemic inflammation and dysregulation of TNF-α production is thought to be involved in many diseases. The Biolegend assay is a sandwich ELISA kit that is designed for the accurate quantitation of human TNF-α from cell culture supernatant, serum or plasma.
THP-1 monocytes were seeded in a 96 well plate at 10,000 cells per well in RPMI containing 10% fetal calf serum (FCS), 1% Pen/strep, 1% L-glutamine, 100 nM PMA and allowed to differentiated for 72 h prior to experimentation.
Following differentiation the cells were incubated with 100 ng/ml, 10 ng/ml or 1 ng/ml synthetic peptide for 24 h respectively.
Following treatment the cells were stimulated with 10 ng/ml LPS for 5 h and the quantity of TNF-α in the supernatant determined using the Biolegend assay ELISA kit.
Results were calculated as a percentage of the untreated control. An increase in optical density reading indicates greater quantity of TNF-α release into cell culture supernatant.
All experiments were prepared in duplicate on three plates (6 wells/conditions). Significance was calculated using Students t-test (*p<0.05 compared to control, **p<0.01 compared to control, *** p<0.001 compared to control).

The test system of assay [2] is Human Dermal Fibroblasts (HDF). The assay can be described thus: BrdU Cell Proliferation Assay. The class given is cell-based. Particulars: 5, 0.5 or 0.05 μg/ml synthetic peptide 24 h. Here is the method: BrDu is incorporated into newly synthesised DNA strands of actively proliferating cells. Following partial denaturation of double stranded DNA, Brdu is detected immunochemically allowing the assessment of the population of cells which are synthesizing DNA. Human Dermal Fibroblasts (HDF—Sigma 10605a) were seeded in a 96 well plate at 10,000 cells per well in DMEM containing 10% fetal calf serum (FCS), 1% Pen/strep, 1% L-glutamine and allowed to adhere for 24 h. Following the initial 24 h incubation the cells were incubated with 5 μg/ml, 0.5 μg/ml or 0.05 μg/ml synthetic peptide for 24 h respectively. After 18 h incubation with synthetic peptides 20 μl BrDu reagent was added to each well. At 24 h incubation the cell were fixed and the amount of […] was measured using the BrdU Cell Proliferation Assay, all steps were carried out according to the manufacturer's instructions. Results were calculated as a percentage of the untreated control. An increase in optical density reading indicates greatER incorporation of BrDu and increase cell proliferation.

The subject of assay [3] is elastic fibers of the dermis. Briefly: morphometric quantification of elastic fibers in skin explants. The class given is cell-based, Human. The following applies: for Morphometric quantification of elastic fibers in the middle dermis (%) / Morphometric quantification of elastic fibers in the superficial dermis (%): applied twice per day, 5 μL per explant. Here is the method: (§1) Skin explants were prepared from abdominal plastic surgery. Some explants were delipidated with alcohol to obtain a dehydrated skin.
(§2) These explants were maintained in maintenance medium supplied by the provider Biopredic International for 5 days. Test items are applied twice per day with 5 μL per explant.
(§3) For each time of analysis (D1 and D5), histologies on delipidated explants, treated explants with test items, the DMSO 0.3% control and water control, are performed.
(§4) After receipt in the laboratory, each skin explant in the maintenance medium is delipidated with 5 μL alcohol during 3 hours.
(§5) After 3 hours, all skin explants are treated two per day with test items, and they are incubated at 37° C.+/−2° C., 5% CO2 for 1 day or 5 days.
The immunohistochemical staining intensity in the elastic fibers is evaluated using a semi-quantitative histological score.
The percentage area taken up by elastic fibers in the dermis was calculated in the dermis and the average superficial dermis. Results are presents in Table 4, FIG. 2 and FIG. 3.

The subject of assay [4] is keratinocytes of the basal layer of the epidermis. The assay can be described thus: Ki67 immunohistochemistry (mitotic index) in skin explants. The class given is cell-based, Human. Here is the method:
as §1, §2, §3, §4, §5
Epithelial proliferation was analyzed by immunohistochemistry using anti-Ki67 antibody. […] Counting the number of labeled cells (keratinocytes of the basal layer of the epidermis) is performed and provides the total number of basal cells to calculate the % of labeled cells.
The results of the immunohistochemical analysis of Ki67 are reported in Table 5 and expressed as % of labelled at the basal layer of the epidermis. The Error! […] Immunohistochemical analysis of mitotic activity is shown in annex 4 with a reminder of the average for each analysed conditions.

Regarding 75 (IYVTDLNNGANQLDPRQRD) [compound 75], the “TNF-α DECREASE” value in assay [1] came out at 11%.

As to “76 (VTNLNSQNFPILNLVQMSAVK) [compound 76]”, the “TNF-α DECREASE” value in assay [1] amounted to 9%.

Take “85 (SIFRALPTDVLANAYRISREE) [compound 85]”: in assay [2], the “INCREASE IN PROLIFERATION” value is listed as 35%. The “TNF-α DECREASE” value in assay [1] came to 80%.

Turning to 91 (TVFNGELR) [compound 91], in assay [1], the “TNF-α DECREASE” value was 80%.

On to 92 (QVQVVNNNGKTVF) [compound 92], for which the “TNF-α DECREASE” value in assay [1] was found to be 13%.

As for 93 (YIIQGRGITGPTF) [compound 93], the “INCREASE IN PROLIFERATION” value in assay [2] is listed as 26%. Besides, the “TNF-α DECREASE” value in assay [1] was 14%.

As to 105 (LAGNKRNPQAYR) [compound 105], the “INCREASE IN PROLIFERATION” value in assay [2] is on record as 40%. Also, the “TNF-α DECREASE” value in assay [1] was found to be 9%.

With 144 (AGILEADR) [compound 144], the “TNF-α DECREASE” value in assay [1] was determined as 16%.

As for 320 (KRHGEWRPSYEKEEDEE) [compound 320], in assay [1], the “TNF-α DECREASE” value was found to be 13%.

As for 339 (ASSNLNLLGF) [compound 339], the “TNF-α DECREASE” value in assay [1] is 26%.

For “341 (RGDTIKLPAGTTSYLVNQDDEE) [compound 341]”, the “INCREASE IN PROLIFERATION” value in assay [2] was 83%. In assay [1], the “TNF-α DECREASE” value was determined as 21%.

Take “344 (ARLSPGDVVIIPAGHPVAIT) [compound 344]”: in assay [1], the “TNF-α DECREASE” value was 20%.

Take “345 (RGDTIKLPAGTTSYLVNQDDE) [compound 345]”: the “TNF-α DECREASE” value in assay [1] turned out to be 23%.

In the case of 346 (ARLSPGDVVIIPAGHPVA) [compound 346], the “TNF-α DECREASE” value in assay [1] amounted to 18%.

As to “349 (LSPGDVVIIPAGHPVAITASSNLNLLGFGINAENNER) [compound 349]”, the “TNF-α DECREASE” value in assay [1] worked out at 6%.

For the substance “350 (ARLSPGDVVIIPAGHPVAITAS) [compound 350]”, the “TNF-α DECREASE” value in assay [1] turned out to be 80%.

In the case of “351 (LSPGDVVIIPAGHPVAITASSNL) [compound 351]”, the “TNF-α DECREASE” value in assay [1] is 18%.

As for “352 (ARLSPGDVVIIPAGHPVAITA) [compound 352]”, the “TNF-α DECREASE” value in assay [1] is 23%.

Consider 353 (HGPVEMPYTLLYPSSK) [compound 353], for which the “TNF-α DECREASE” value in assay [1] came out at 20%.

Consider EDLRLVDLVIPVNGPGKFE [0723.06], for which the “Morphometric quantification of elastic fibers in the middle dermis (%)” value in assay [3] (D1) turned out to be 4.54%; in assay [3] (D5), 8.67%. Moreover, the “Morphometric quantification of elastic fibers in the superficial dermis (%)” value is given as 3.8% in assay [3] (D1) and 4.03% in assay [3] (D5). Moreover, the “% of Ki67 positive cells in the basal layer of the epidermis” value (“% of Ki67 positive cells” below) is listed as 31.97% in assay [4] (D1) and 5.04% in assay [4] (D5). In addition, the “number of mitotic cells compared to EGF” value in assay [4] (day 1) is “increase”.

For “EGF (Epidermal Growth Factor): Epidermal Growth Factor, 10 ng/mL, comparison condition in the skin explant tests [reference compound]”, the “Morphometric quantification of elastic fibers in the middle dermis (%)” value in assay [3] (D1) was determined as 5.68%; in assay [3] (D5), 6.61%. Also, the “Morphometric quantification of elastic fibers in the superficial dermis (%)” value in assay [3] (D1) came out at 3.64%; in assay [3] (D5) it was 5.61%. Besides, the “% of Ki67 positive cells” value in assay [4] (D1) was 25.11%; in assay [4] (D5), 4.2%.

On to HGEWRPSYEKQEDEE [0723.03], for which, in assay [3] (D1), the “Morphometric quantification of elastic fibers in the middle dermis (%)” value turned out to be 4.9% and the “Morphometric quantification of elastic fibers in the superficial dermis (%)” value is given as 3%. Moreover, in assay [3] (D5), the “elastic fibers in the middle dermis compared to the water control” value was “increase”, the “elastic fibers in the superficial dermis compared to control water” value is “increase by twice”, the “Morphometric quantification of elastic fibers in the middle dermis (%)” value was found to be 9% and the “Morphometric quantification of elastic fibers in the superficial dermis (%)” value is 11.68%. Besides, the “% of Ki67 positive cells” value in assay [4] (D1) is 22.01%. Besides, the “% of Ki67 positive cells” value in assay [4] (D5) turned out to be 10.04%.

For the substance QSFLLSGNQ [E_1_788], the “TNF-α secretion reduced vs. untreated cells” value in assay [1] (THP-1 differentiated macrophages treated 24 hrs. prior to LPS stimulation) stood at 80%.
